Laboratory results published in US20240182480A1, “5-HT2A AND/OR 5-HT2C RECEPTOR AGONISTS” (priority 2021, published 2024).
Like-named read-outs stand apart in the source and are kept apart here.

Columns and labels:
[1] = biological target: T1, 5-HT2A (Homo sapiens, UniProt P28223); assay: cell-based; conditions: FLIPR calcium assay, agonist mode
T1 construct: expressed in transfected cells; the paragraph before it names a CHO-K1-mt aequorin Gα16 cell line

[2] = biological target: T2, 5-HT2C (Homo sapiens, UniProt P28335); assay: 5-HT2C pharmacological screening by FLIPR assay in agonist mode; assay type: cell-based
T2 construct: expressed in transfected cells; the paragraph before it names a CHO-K1-mt aequorin Gα16 cell line
T2 sequence (P28335 33-458): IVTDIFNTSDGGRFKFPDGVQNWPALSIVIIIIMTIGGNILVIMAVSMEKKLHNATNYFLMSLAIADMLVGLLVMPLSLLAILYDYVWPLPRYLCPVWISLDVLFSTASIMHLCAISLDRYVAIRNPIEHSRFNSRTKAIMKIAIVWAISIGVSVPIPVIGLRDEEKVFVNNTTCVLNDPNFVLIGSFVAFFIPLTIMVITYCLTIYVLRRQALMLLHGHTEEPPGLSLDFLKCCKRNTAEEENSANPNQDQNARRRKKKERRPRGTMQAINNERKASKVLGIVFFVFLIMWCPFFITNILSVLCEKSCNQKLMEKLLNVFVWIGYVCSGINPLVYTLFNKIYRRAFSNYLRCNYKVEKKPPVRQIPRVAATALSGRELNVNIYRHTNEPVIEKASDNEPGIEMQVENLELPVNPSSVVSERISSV

[3] = biological target: T3, 5-HT2B (Homo sapiens, UniProt P41595); assay: cell-based; conditions: FLIPR calcium assay, agonist mode
T3 construct: expressed in transfected cells; the paragraph before it names a CHO-K1-mt aequorin Gα16 cell line

[4] = 5-HT2A (EC50, % max activity), class symbols
[5] = 5-HT2A, (EC50, % max activity), approximate values
[6] = FLIPR calcium assay, agonist mode, approximate values, read-out: 5-HT2C, (EC50, % max activity)
[7] = FLIPR calcium assay, agonist mode, class symbols, read-out: 5-HT2C (EC50, % max activity)
[8] = 5-HT2B (EC50, % max activity), class symbols
[9] = 5-HT2B, (EC50, % max activity), approximate values
[10] = class symbols, read-out: 5-HT2A (EC50, % max activity)
[11] = class symbols, read-out: 5-HT2B (EC50, % max activity)

T3 sequence (P41595 whole entry): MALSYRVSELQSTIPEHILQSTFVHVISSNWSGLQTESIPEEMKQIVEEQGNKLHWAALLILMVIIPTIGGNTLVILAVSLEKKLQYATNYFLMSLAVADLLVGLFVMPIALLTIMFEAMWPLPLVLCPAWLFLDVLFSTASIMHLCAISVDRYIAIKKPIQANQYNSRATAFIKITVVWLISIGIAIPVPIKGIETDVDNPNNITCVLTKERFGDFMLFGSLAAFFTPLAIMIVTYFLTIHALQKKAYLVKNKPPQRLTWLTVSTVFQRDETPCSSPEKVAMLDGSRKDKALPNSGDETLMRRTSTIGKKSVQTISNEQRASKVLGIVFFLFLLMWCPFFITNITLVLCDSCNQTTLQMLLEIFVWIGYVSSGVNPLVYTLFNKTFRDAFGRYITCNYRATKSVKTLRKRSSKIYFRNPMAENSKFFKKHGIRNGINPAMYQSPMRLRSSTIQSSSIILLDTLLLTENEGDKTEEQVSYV
T1 sequence (P28223 whole entry): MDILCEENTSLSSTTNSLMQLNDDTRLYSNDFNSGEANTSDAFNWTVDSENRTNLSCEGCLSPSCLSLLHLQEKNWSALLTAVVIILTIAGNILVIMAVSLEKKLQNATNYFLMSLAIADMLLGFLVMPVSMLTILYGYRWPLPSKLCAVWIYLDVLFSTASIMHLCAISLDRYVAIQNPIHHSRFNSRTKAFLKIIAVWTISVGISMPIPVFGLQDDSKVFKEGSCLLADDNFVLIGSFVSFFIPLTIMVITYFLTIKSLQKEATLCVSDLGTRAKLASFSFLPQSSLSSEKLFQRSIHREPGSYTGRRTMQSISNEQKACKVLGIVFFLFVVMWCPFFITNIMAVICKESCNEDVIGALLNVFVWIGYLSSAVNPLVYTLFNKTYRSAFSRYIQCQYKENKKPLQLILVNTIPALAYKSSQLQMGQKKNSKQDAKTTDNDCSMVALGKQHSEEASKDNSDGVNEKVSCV

Row | Compound | EC50 [1, 4] [nM] | EC50 [3, 8] [nM] | EC50 [1, 10] [nM] | EC50 [3, 11] [nM] | also measured
1 | c1nc2c(nc1N1CCCOCC1)CCNCC2 [Example 1, 4-(6,7,8,9-tetrahydro-5H-pyrazino[2,3-d]azepin-2-yl)-1,4-oxazepane] | 1000 to 6000 | > 6000 |  |  | EC50 [1, 5]: ~2000 nM; EC50 [2, 6]: ~100 nM; EC50 [2, 7]: < 200 nM; EC50 [3, 9]: > 30000 nM
2 | FC1(F)CCN(c2cnc3c(n2)CCNCC3)CC1 [Example 2, 2-(4,4-difluoropiperidin-1-yl)-6,7,8,9-tetrahydro-5H-pyrazino[2,3-d]azepine] | 200 to 1000 | 1000 to 6000 |  |  | EC50 [1, 5]: ~900 nM; EC50 [2, 6]: ~200 nM; EC50 [2, 7]: < 200 nM; EC50 [3, 9]: ~4000 nM
3 | FC1CCN(c2cnc3c(n2)CCNCC3)CC1 [Example 4, 2-(4-fluoropiperidin-1-yl)-6,7,8,9-tetrahydro-5H-pyrazino[2,3-d]azepine] |  |  | 1000 to 6000 | 200 to 1000 | 
4 | CN(C)c1cnc2c(n1)CCNCC2 [Example 15, N,N-dimethyl-6,7,8,9-tetrahydro-5H-pyrazino[2,3-d]azepin-2-amine] |  |  | > 6000 | 200 to 1000 | 
5 | c1nc2c(nc1N1CCCC1)CCNCC2 [Example 16, 2-(pyrrolidin-1-yl)-6,7,8,9-tetrahydrahydro-5H-pyrazino[2,3-d]azepine] |  |  | > 6000 | 200 to 1000 | 
6 | FC1CN(c2cnc3c(n2)CCNCC3)C1 [Example 17, 2-(3-fluoroazetidin-1-yl)-6,7,8,9-tetrahydro-5H-pyrazino[2,3-d]azepine] |  |  | > 6000 | > 6000 | 
7 | c1ccc(COc2cnc3c(n2)CCNCC3)cc1 [Example 18, 2-(benzyloxy)-6,7,8,9-tetrahydro-5H-pyrazino[2,3-d]azepine] | > 6000 | < 200 |  |  | 
8 | Nc1cnc2c(n1)CCNCC2 [Example 19, 6,7,8,9-tetrahydro-5H-pyrazino[2,3-d]azepin-2-amine] |  |  | > 6000 | > 6000 | 
9 | Clc1cnc2c(n1)CCNCC2 [Example 20, 2-chloro-6,7,8,9-tetrahydro-5H-pyrazino[2,3-d]azepine] | > 6000 | > 6000 |  |  | 
10 | CN1CCc2[nH]c3ncccc3c2CC1 [Example 22, 7-methyl-5,6,7,8,9,10-hexahydropyrido[3′,2′:4,5]pyrrolo[2,3-d]azepine] | > 6000 | > 6000 |  |  | EC50 ([2]; 5-HT2C (EC50, % max activity, FLIPR calcium assay, agonist mode), class symbols): > 6000 nM
